# Assay results taken from patent US20260021186A1, “Fatty Acid-D-Amino Acid Peptides Conjugates as Anaplerotic Compounds for Use in Treating Propionic Acidemia, Methylmalonic Acidurias, and Energy Metabolic Disorders” (University of Pittsburgh - Of the Commonwealth System of …, priority 2022, published 2026).
# Tests used:
# Format in all cases: cell-based, human
# HEK293 PCCA−/− cells [1] = assay: Lysine succinylation of cellular proteins by immunofluorescence confocal microscopy; details: FIGS. 9C, 9D; 30 μM and 90 μM; media without glucose, pyruvate, and glutamine
# Protocol: FIGS. 9A-9F are a comparison of lysine succinylation of cellular proteins visualized by immunofluorescence confocal microscopy in human HEK293 control and HEK293 PCCA^−/− cells untreated (FIGS. 9A and 9B) and treated with 30 μM and 90 μM of PMA007 (FIG. 9C) or 30 μM and 90 μM of PMA010 (FIG. 9D). The cells in FIGS. 9B, 9C, and 9D were grown in media without glucose, pyruvate, and glutamine. Scale bar=20 μm. FIG. 9E is a bar graph showing the quantification of the percent change in lysine succinylation (green) signal, from the immunofluorescence confocal micrographs of FIGS. 9B and 9C, in response to the treatment of PMA007. FIG. 9F is a bar graph showing the quantification of the percent change in lysine succinylation (green) signal, from the immunofluorescence confocal micrographs of FIGS. 9B and 9D, in response to the treatment of PMA010. Asterisks indicate statistical significance calculated at the raw data level (n=3); **P<0.01. ****P<0.0001 statistically compared to untreated. Statistical analysis used T-test.
# FIGS. 9A-9F are a comparison of lysine succinylation of cellular proteins visualized by immunofluorescence confocal microscopy in human HEK293 control and in untreated and treated HEK293 PCCA^−/− knock out cells. […] The PMA007 treatment data in the bar graph of FIG. 9E are the quantitation of the images of FIG. 9C compared to untreated control in FIG. 9B. […]
# PA patient cells, Fb859 = assay: Measurement of mitochondrial respiration (Seahorse XF MitoStress test, OCR); details: FIGS. 12A-12D; 30 μM and 90 μM for 72 h
# Protocol: Measurement of Mitochondrial Respiration Seahorse: Fb859 cells were grown in regular DMEM media until 85-90% confluency. The cells were harvested and seeded at a concentration of 25,000 cells/80 μl (n=8 replicates) in poly-D lysine coated XFe seahorse 96well plate in regular DMEM media and incubated overnight at 37° C. in a 5% CO2 incubator. Following day, the culture media was replaced in designated wells with the following for 72 h:180 μl of Specialty Media A (seahorse XFDMEM base media+10% fat stripped FBS+Glucose+sodium pyruvate+L-glutamine+0.5 mM carnitine). 180 μl of Specialty Media B (scahorse XFDMEM base media+10% stripped FBS+0.5 mM carnitine and no added glucose, sodium pyruvate or glutamine). 180 μl of Specialty media B containing experimental compounds. After 72 h incubation the Specialty media A & B was replaced in respective designated wells with 180 μL Seahorse XF DMEM base media containing glucose, sodium pyruvate. […] OCR was determined (Seahorse XF MitoStress test). Finally, cells were lysed, and protein content was determined. […]
# Measurement of Mitochondrial Respiration: Control Fb826 and Patient Fb859 cells were grown in regular DMEM media without adding extra glutamine until 85-90% confluency. […] Oxygen consumption rate (OCR) was determined (Seahorse XF MitoStress test). Finally, cells were lysed, and protein content was determined. […]
# HEK293 PCCA−/− cells [2] = assay: Propionyl-CoA alternative metabolites excreted in culture media (mass spectrometry); details: 72 hours; relative to untreated cells
# Protocol: FIGS. 14A-14D are graphs showing the quantitation of propionyl-CoA alternative metabolites excreted in the media of FB859 patient and HEK293 PCCA^−/− cultured cells treated with PMA007 or PMA010 for 72 hours: propionylcarnitine (C3-carnitine; FIG. 14A), propionylglycine (C3-glycine; FIG. 14B), hydroxypropionylcarnitine (C3OH-carnitine; FIG. 14C), and hydroxypropionyl glycine (C3OH-glycine, FIG. 14D). Data are presented as percentage to untreated cells. In media of Fb859 cells, the control (Cntl, 0 μM) treatment with glucose and pyruvate, media propionylcarnitine was 0.17 μM, while in the untreated control, which had no glucose or pyruvate, and stripped FBS (no fat) included in the media, propionylcarnitine was 0.433 μM.
# Acylcarnitine levels determination: Media from control, Fb826, and treated and untreated patient, Fb859, cells were collected from either the immunohistochemistry cultures or the Seahorse oxygen consumption 96-well plate assays and analyzed for the levels of short chain acylcarnitines plus propionylglycine and hydroxypropionylglycine using a triple quadrupole API4000 mass spectrometer (AB Sciex™, Framingham, MA) equipped with a ExionLC™ 100 HPLC system (Shimadzu Scientific Instruments™, Columbia, MD) as outlined as previously published.
structure (smiles),measurement,setting,value
"C[C@@H](NC(=O)CCCCC(=O)O)C(=O)N[C@H](Cc1c[nH]cn1)C(=O)O [PMA010, 6-(((R)-1-(((R)-1-carboxy-2-(1H-imidazol-4-yl)ethyl)amino)-1-oxopropan-2-yl)amino)-6-oxohexanoic acid]",lysine succinylation (green) signal,HEK293 PCCA−/− cells [1],green color was restored
same,oxygen consumption parameters compared to individual components D-Serine and D-Histidine,"PA patient cells, Fb859",improved
same,reduction in hydroxypropionyl glycine in media,HEK293 PCCA−/− cells [2],80%
same,reduction in propionylcarnitine in media,HEK293 PCCA−/− cells [2],59%
same,reduction in propionylglycine in media,HEK293 PCCA−/− cells [2],41%
